Data from patent publication US20230372318A1, “METHODS FOR TREATING A SUBJECT HAVING MULTIPLE SYSTEM ATROPHY” (Theravance Biopharma R&D IP, LLC, priority 2022, published 2023).

Tested on: subjects with primary autonomic failures (MSA, PD, or PAF) and symptomatic nOH
Assay: Phase 3 22-week randomized withdrawal study in symptomatic nOH (Example 7)
Type: in vivo, human
Set-up: OHSA composite score, LS Mean / OHSA composite score, Mean / OHSA composite score, Median / OHSA composite score, LS Mean Difference / OHDAS item 1 (standing for a short time) score, Mean / OHDAS item 1 (standing for a short time) score, Median / OHDAS item 1 (standing for a short time) score, LS Mean / OHDAS item 1 (standing for a short time) score, LS Mean Difference: scale not given here
Conditions: MSA subjects; for OHSA composite score, LS Mean / OHSA composite score, Mean / OHSA composite score, Median / OHSA composite score, LS Mean Difference: change at week 22, end of 6-week double-blind period; for OHSA composite score, LS Mean Difference / OHDAS item 1 (standing for a short time) score, LS Mean Difference: vs placebo; for OHDAS item 1 (standing for a short time) score, LS Mean / OHDAS item 1 (standing for a short time) score, Mean / OHDAS item 1 (standing for a short time) score, Median / OHDAS item 1 (standing for a short time) score, LS Mean Difference: week 22, end of 6-week double-blind period
Experimental: The study consisted of a 16-week open-label (OL) treatment period with ampreloxetine followed by a 6-week double-blind randomized withdrawal period where subjects were administered either ampreloxetine or placebo.
Eligible subjects were either (i) completers of the study of Example 6 (“Completers Group”), or (ii) symptomatic nOH subjects meeting all applicable study inclusion criteria and none of the applicable exclusion criteria (“De Novo Group”).
A 4-week screening period applied to the De Novo Group only and the Screening visit was conducted in clinic for all De Novo Group subjects.
A total of 203 subjects entered this study (170 subjects from Example 6 (85 from the ampreloxetine group and 85 from the placebo group) and 33 de novo subjects). During the OL period, 55 subjects discontinued treatment. At 16 weeks, 64 subjects were randomized to the ampreloxetine group (6 subjects discontinued the study) and 64 subjects were randomized to the placebo group (3 subjects discontinued the study). A total of 119 subjects completed the study. Of the 128 subjects entering the randomized period, 40 subjects had MSA (31%); 68 subjects had PD (53%); and 20 subjects had PAF (16%) (in each category, the subjects were split equally between ampreloxetine and placebo).
Beginning on Day 2, subjects received a single dose of 10 mg ampreloxetine once daily (QD) and continued thereafter for the 16-week duration of the OL treatment period. Following this 16-week OL treatment period, subjects were randomized to either continue on the active treatment or placebo (“PBO”) for a period of 6 weeks.
Subjects enrolled into the OL period of the study had visits scheduled for Day 15, Day 29, and every 4 weeks thereafter for assessments as outlined in the Schedule of Study Procedures. […] Those subjects not meeting this continuation criterion were discontinued and underwent an end of study visit. The end of study visit was completed within 2 weeks from the date of the last dose.
Following the completion of a total of 16 weeks OL treatment with ampreloxetine (V6), subjects were assessed for randomization in a 1:1 manner. Eligible subjects received 6 weeks of double-blind treatment of ampreloxetine or PBO once daily. Only subjects with OHSA #1 score of ≤7 were eligible for randomization for the double-blind treatment period.
Exploratory assessments included: orthostatic standing test; NMSS; EQ-5D-5L; HADS; and BSFC-s. For subjects with PD, exploratory assessments included: Unified Parkinson's Disease Rating Scale (UPDRS); and Parkinson's Disease Questionaire-8 (PDQ-8). For subjects with MSA, exploratory assessments included: Unified Multiple System Atrophy Rating Scale (UMSARS); and Composite Autonomic Symptom Score-31 (COMPASS-31).
The secondary endpoints included: • (a) Change from baseline in OHSA #1 at Week 6 post randomization (V9, D155); • (b) Change from baseline in OHSA composite score at Week 6 post randomization (V9, D155); • (c) Change from baseline in OHDAS composite score at Week 6 post randomization (V9, D155); • (d) Change from baseline in PGI-S at Week 6 post randomization (V9, D155); • (e) Change from baseline in percentage of time spent in standing position as measured by a wearable device at Week 6 post randomization (V9, D155); and • (f) Change from baseline in average number of steps taken as measured by a wearable device at Week 6 post randomization (V9, D155).

## Fc1cc(F)c(OCc2ccccc2C2CCNCC2)c(F)c1 [Ampreloxetine, 4-[2-(2,4,6-trifluorophenoxymethyl)phenyl]piperidine]
<65 Years
  OHSA composite score, LS Mean: 0.55
  OHSA composite score, Mean: 0.8
  OHSA composite score, Median: 0.4
  OHSA composite score, LS Mean Difference: −1.09
  OHDAS item 1 (standing for a short time) score, LS Mean: −0.5
  OHDAS item 1 (standing for a short time) score, Mean: 0.0
  OHDAS item 1 (standing for a short time) score, Median: 0.0
  OHDAS item 1 (standing for a short time) score, LS Mean Difference: −2.9
>=65 Years
  OHSA composite score, LS Mean: −0.60
  OHSA composite score, Mean: −0.75
  OHSA composite score, Median: −0.70
  OHSA composite score, LS Mean Difference: −2.17
  OHDAS item 1 (standing for a short time) score, LS Mean: −0.4
  OHDAS item 1 (standing for a short time) score, Mean: −0.3
  OHDAS item 1 (standing for a short time) score, Median: 0.0
  OHDAS item 1 (standing for a short time) score, LS Mean Difference: −1.0
Female
  OHSA composite score, LS Mean: 0.2078
  OHSA composite score, Mean: 0.23
  OHSA composite score, Median: 0.00
  OHSA composite score, LS Mean Difference: −1.3996
  OHDAS item 1 (standing for a short time) score, LS Mean: 0.2
  OHDAS item 1 (standing for a short time) score, Mean: 0.3
  OHDAS item 1 (standing for a short time) score, Median: 0.0
  OHDAS item 1 (standing for a short time) score, LS Mean Difference: −1.0
MSA diagnosis <1.3 years
  OHSA composite score, LS Mean: 0.73
  OHSA composite score, Mean: 0.67
  OHSA composite score, Median: 0.70
  OHSA composite score, LS Mean Difference: −1.24
  OHDAS item 1 (standing for a short time) score, LS Mean: 0.7
  OHDAS item 1 (standing for a short time) score, Mean: 0.1
  OHDAS item 1 (standing for a short time) score, Median: 0.0
  OHDAS item 1 (standing for a short time) score, LS Mean Difference: −2.7
MSA diagnosis >=1.3 years
  OHSA composite score, LS Mean: −0.67
  OHSA composite score, Mean: −0.64
  OHSA composite score, Median: −0.10
  OHSA composite score, LS Mean Difference: −1.78
  OHDAS item 1 (standing for a short time) score, LS Mean: −0.6
  OHDAS item 1 (standing for a short time) score, Mean: −0.4
  OHDAS item 1 (standing for a short time) score, Median: 0.0
  OHDAS item 1 (standing for a short time) score, LS Mean Difference: −0.7
MSA-C
  OHSA composite score, LS Mean: 1.10
  OHSA composite score, Mean: 0.76
  OHSA composite score, Median: 0.50
  OHSA composite score, LS Mean Difference: −0.68
  OHDAS item 1 (standing for a short time) score, LS Mean: 0.9
  OHDAS item 1 (standing for a short time) score, Mean: 0.7
  OHDAS item 1 (standing for a short time) score, Median: 0.0
  OHDAS item 1 (standing for a short time) score, LS Mean Difference: −1.0
MSA-P
  OHSA composite score, LS Mean: −0.50
  OHSA composite score, Mean: −0.39
  OHSA composite score, Median: 0.05
  OHSA composite score, LS Mean Difference: −1.72
  OHDAS item 1 (standing for a short time) score, LS Mean: −1.2
  OHDAS item 1 (standing for a short time) score, Mean: −0.7
  OHDAS item 1 (standing for a short time) score, Median: 0.0
  OHDAS item 1 (standing for a short time) score, LS Mean Difference: −2.7
Male
  OHSA composite score, LS Mean: −0.3923
  OHSA composite score, Mean: −0.46
  OHSA composite score, Median: 0.20
  OHSA composite score, LS Mean Difference: −1.8762
  OHDAS item 1 (standing for a short time) score, LS Mean: −1.2
  OHDAS item 1 (standing for a short time) score, Mean: −0.8
  OHDAS item 1 (standing for a short time) score, Median: 0.0
  OHDAS item 1 (standing for a short time) score, LS Mean Difference: −2.8
Overall
  OHSA composite score, Mean: −0.05
  OHSA composite score, Median: 0.05
  OHSA composite score, LS Mean Difference: −1.57
  OHDAS item 1 (standing for a short time) score, LS Mean: −0.4
  OHDAS item 1 (standing for a short time) score, Mean: −0.2
  OHDAS item 1 (standing for a short time) score, Median: 0.0
  OHDAS item 1 (standing for a short time) score, LS Mean Difference: −2.0
Overall, placebo 1.54, p=0.0056
  OHSA composite score, LS Mean: −0.03
Pre treatment baseline OHSA1 <7
  OHSA composite score, LS Mean: −0.22
